Key:
CT DNA = experiment: Dark interaction of DPPZPHEN with CT DNA, UV-Vis absorption titration at 380 nm; assay type: binding, calf; conditions: CT DNA, from molar extinction coefficient at 380 nm
Method: General. The quantity of DNA was determined by the Burton assay (Burton, Biochem. J., 62:315-322 (1956)), and its rhodium content was quantitated using flame atomic absorption spectroscopy (AA). The equilibrium constant for interaction between DPPZPHEN and CT-DNA in the dark was calculated from UV-Vis absorption titration measurements at 380 nm (Wolfe et al., Biochem., 26:6392-6396 (1987); Schemel et al., Biopolymers, 10:465-480 (1971)). Cell viability was determined using the MTT assay (Denizot et al., J. Immunol. Methods, 89:271-277 (1986)). SINV was purified on sucrose gradients as previously described (Owen et al., J. Virol., 70:2757-2763 (1996)). The titer was generally 7-8 log10 pfu/mL at the beginning of each experiment.
Interaction of DPPZPHEN with DNA. […] An intrinsic binding constant of […] 3.4×10^5 M^−1 was calculated using the molar extinction coefficient at the λmax (380 nm) at each titration point.

M109 cells = experiment: Phototoxicity to M109 tumor cells, MTT assay; assay type: cell-based, mouse; conditions: dark, zero time point
Method: (§1) Photolysis with Tumor Cells.
Procedures for cell maintenance, cell plating, drug incubation, photolysis and MTT assay are all same as that used for the KB cell lines. A small amount of dark toxicity was observed (about 15%). A considerable amount of killing occurs with light alone after 30 and 40 minutes of irradiation (FIG. 10).

GN4 cells = experiment: Phototoxicity to GN4 tumor cells, MTT assay; assay type: cell-based, canine; conditions: dark, zero time point
Method: as §1
Media was decanted from the flask. […] Trypsin-EDTA was then decanted and the flask was incubated at 37° C. for 8 minutes. […] Released cells were suspended in 5 mL of media and shaken well. […] The remaining cells were discarded.
Cells were plated, incubated with the drug, and photolysis was conducted as for the KB cell lines.

SINV genomic RNA = experiment: Immunofluorescence assay for SINV capsid protein translated from irradiated viral RNA in BHK cells; assay type: cell-based, Sindbis virus; conditions: RNA from virus irradiated with compound
Method: An immunofluorescence assay was also employed to detect the presence of SINV capsid protein newly translated from the irradiated viral genomic RNA. For these experiments the virus solutions had to be 10 log10 pfu/mL, which is a virus concentration 3 orders of magnitude higher than that used in the previous experiments. Also, the DPPZPHEN solutions had to be prepared in DMSO to maintain the ratio of drug to virus as in the previous experiments. […] SINV RNA from virus that had been either incubated in the dark or irradiated with DPPZPHEN was isolated and transfected into baby hamster kidney cells as described above. Following electroporation, the cells were plated on coverslips and incubated at 37° C. for 12 hours. The cells on the coverslips were then fixed with methanol for 15 minutes and washed twice with 1×PBS buffer. They were then incubated with anti-CP (SINV) polyclonal antibody (Owen et al., J. Virol., 70:2757-2763 (1996)) for 45 minutes at 37° C. After washing three times with 1×PBS buffer the cells were incubated with fluorescein-5-isothiocyanate (FITC) conjugated goat anti-rabbit secondary antibody (obtained from Kirkegaard and Perry, Gaithsburg, Md.) at 37° C. for 45 minutes. […] They were viewed under a Nikon Eclipse TE200 with a TE-FM Epi-fluorescence attachment.

cell membrane = experiment: Cell uptake / passage through the cell membrane
Method: OCTBP uptake by KB cells. 11 mg of OCTBP was dissolved in 40 mL of PBS buffer. The solution was vortex stirred for 5 minutes to completely dissolve the solid. The solution was sterile filtered through a 0.2μ nylon syringe filter. The concentration of the solution was determined by measuring the UV absorption at 353 nm (ε353nm=1565 M^−1cm^−1).
Once the cells were 75% confluent media was decanted from the flasks and 8 mL of drug solutions were added to three flasks and 8 mL of PBS buffer solution was added to the control flask. The flasks were incubated at 37° C. for 15, 30 and 45 minutes. Control flask was incubated for 45 minutes. When the flasks were removed, they were washed with 6×10 mL of PBS buffer solution. All the liquid was carefully decanted from the flasks. 1 mL of lysing buffer (1% triton X-100) was added to each of the four flasks. The walls of the flasks were rinsed using disposable pipettes. Once all the contents of the flasks were placed into a 1.5 mL disposable centrifuge tubes (each flask yielded ˜1.2 mL), the tubes were centrifuged at 6000 rpm and at 4° C. for 30 minutes on the Fisher Model 59V high-speed centrifuge. BCA Assay was done to establish the amount of cells in each flask.
Rh content of each flask was determined using an inductively coupled plasma (ICP) instrument (AtomScan16, Thermo Elemental, Franklin, Mass.). From each centrifuge tube 1 mL was pipetted and 370 μL of concentrated HCl was added to form a 10% solution. The samples were heated in a hot water bath at 70° C. for 30 minutes. The samples were centrifuged again and the supernatant liquid was diluted to 8 mL by adding nano-pure water. The samples were analyzed for Rh content by ICP.

[1] = Reversed phase HPLC elution on C8 column as measure of hydrophobicity; assay type: physicochemical; conditions: 45% acetonitrile in 100 mM ammonium acetate pH 5.4
Method: Reversed phase high performance liquid chromatography (RP-HPLC) was carried out on C8 columns. Compounds were tested using 20%, 30% and 45% acetonitrile in 100 mM ammonium acetate at pH 5.4 for elution on a C8 column, with the intention of achieving an elution time of about 15 minutes. It was expected that the more hydrophobic a compound, the higher the acetonitrile content one would need for the eluent.

KB cells = experiment: Phototoxicity to KB tumor cells, MTT assay; conditions: dark, zero time point
Method: Photolysis with Tumor Cells. […] At the beginning of an experiment media was removed from all plates and the cells were washed with 1 mL of PBS or Hank's salt solution. Drug solution (2 mL) or buffer solution (2 mL) was added to each dish. […] Cells were incubated, with or without metal complex, for 4 hours. After incubation, the solutions were removed from the dishes and the dishes were washed with 1 mL of PBS or Hank's salt solution. A fresh 1 mL of PBS or Hank's salt solution was added to each dish and these were placed on a turntable that sat on the top part of the photolysis chamber. […] The plates were then incubated for 40-48 hours before a determination of the extent of cell toxicity by MTT assay.
Cells were incubated in 75 cm^2 culture flasks. They were grown in Dulbecco's Modified Eagles Medium (D-MEM) supplemented with 10% heat inactivated fetal bovine serum (FBS), 1% L-glutamine-penicillin-streptomycin and 1% amphotericin-B. When cells were not plated for use in an experiment, they were transferred when they were 75-100% confluent using the following procedure. Media was decanted from the flask. Cells were rinsed 1-2 times with 10 mL of Hank's Balanced salt solution. […] Trypsin-EDTA was then decanted and the cells were released from the wall of the flask by tapping the side of the flask. Released cells were suspended in 5 mL media and 1 mL of this suspension was placed in a new culture flasks containing 20 mL of fresh media. The remaining cells were discarded. A culture flask can be used for 3 transfers.
Usually 16-24 hours before a photolysis experiment, cells were plated in 35×10 mm tissue culture dishes and incubated at 37° C. until the experiment was begun. Cells were about 75-100% confluent in the 75 cm^2 culture flask when plated. After being washed and released from the flask as described above, cells were suspended in 40 mL media and 1.5 mL of suspension was placed in each dish.
The concentration of the solution was 70 μM.
The cell dishes were incubated with drug or Hanks balanced salt solution (1 mL) for 3 hours. After incubation, solutions were decanted from the plates and 1 mL of Hank's Balanced salt solution were placed in each. […] Following photolysis, Hank's Balanced salt solutions were decanted and 1 mL of fresh media was placed in each plate.
Plates were incubated for 65 hours and then analyzed for cell survival by MT assay. 5 mg/mL MTT solution in water was prepared and 100 μL of this solution was added to each plate and the plates were incubated for 1.5 hours. Purple crystals formed from live cells. Media was gently removed from plates using a Pasteur pipette, the purple crystals that remained at the bottom of the dish were dissolved in 6 mL of isopropanol.
Phototoxicity studies with long wavelength light (>400 nm). […]

Question: What does the source list for `[Cl-].[Cl][Rh+]12([Cl])([N]3C=CC=c4ccc5c(c43)[N]1C=CC=5)[N]1C=CC=c3c1c1c(c4nc5ccccc5nc34)=CC=C[N]12` [DPPZPHEN, cis-dichloro(dipyrido[3,2a-2′3′c]phenazine)(1,10-phenantroline) rhodium(III) chloride]?
Answer: intrinsic binding constant (Keq, association constant with DNA) (CT DNA): 340000 M⁻¹; cell toxicity in the absence of light (M109 cells): no appreciable degree of cell toxicity; cell toxicity in the absence of light (GN4 cells): no appreciable degree of cell toxicity; SINV capsid protein (CP) in transfected BHK cells (SINV genomic RNA): CP was not observed; ability to pass through the cell membrane (cell membrane): able to pass through the cell membrane; elution time [1]: about 15 minutes; cell toxicity in the absence of light (KB cells): no appreciable degree of cell toxicity

From US20060111335A1, “Photoactivated anti-viral and anti-cancer agent” (priority 2002, published 2006)
